Converted amounts (≈) assume the structure as drawn. Where two headings read alike, the source gives them in different places. Blank lines part the entries; values can stand above or below the compound they belong to.
Assays:
Test in all cases: Anti-microbial activity test in vitro (agar dilution MIC)
[1] = system: CRSA C1062; format: cell-based, Staphylococcus aureus; settings: Staphylococcus aureus, read-out: Minimum inhibition concentration (MIC)
Description: (§1) Anti-microbial activity test in vitro
(§2) Strains were cultivated for 18 hours at 37° C. in Agar Dilution method using Mueller Hinton Agar, and then plane plates inoculated with the strains by diluting them two times gradually were aligned in a row. Minimum inhibition concentration (MIC, μg/ml) for the representative compounds of the present invention, Linezolid (LZD) and vancomycin (VAN) were decided through visual observation, and the results are shown in the following tables 2 and 3.

[2] = system: CRSA C6043; format: cell-based, Staphylococcus aureus; settings: Staphylococcus aureus, read-out: Minimum inhibition concentration (MIC)
Description: as §1, §2

[3] = system: MRSA C2207; format: cell-based, Staphylococcus aureus; settings: Staphylococcus aureus, read-out: Minimum inhibition concentration (MIC)
Description: as §1, §2

[4] = system: MRSA C5100; format: cell-based, Staphylococcus aureus; settings: Staphylococcus aureus, read-out: Minimum inhibition concentration (MIC)
Description: as §1, §2

[5] = system: MRSA C6068; format: cell-based, Staphylococcus aureus; settings: Staphylococcus aureus, read-out: Minimum inhibition concentration (MIC)
Description: as §1, §2

[6] = system: MSSA C2214; format: cell-based, Staphylococcus aureus; settings: Staphylococcus aureus, read-out: Minimum inhibition concentration (MIC)
Description: as §1, §2

[7] = system: MSSA C7142; format: cell-based, Staphylococcus aureus; settings: Staphylococcus aureus, read-out: Minimum inhibition concentration (MIC)
Description: as §1, §2

[8] = system: E. faecalis ATCC29212; format: cell-based; settings: Enterococcus faecalis, read-out: Minimum inhibition concentration (MIC)
Description: as §1, §2

[9] = system: E. faecalis C6288; format: cell-based; settings: Enterococcus faecalis, read-out: Minimum inhibition concentration (MIC)
Description: as §1, §2

[10] = system: E. faecalis C6291; format: cell-based; settings: Enterococcus faecalis, read-out: Minimum inhibition concentration (MIC)
Description: as §1, §2

[11] = system: E. faecium C2252; format: cell-based; settings: Enterococcus faecium, read-out: Minimum inhibition concentration (MIC)
Description: as §1, §2

[12] = system: E. faecium C6301; format: cell-based; settings: Enterococcus faecium, read-out: Minimum inhibition concentration (MIC)
Description: as §1, §2

[13] = system: S. epidermidis ATCC12228; format: cell-based; settings: Staphylococcus epidermidis, read-out: Minimum inhibition concentration (MIC)
Description: as §1, §2

[14] = system: S. epidermidis C2230; format: cell-based; settings: Staphylococcus epidermidis, read-out: Minimum inhibition concentration (MIC)
Description: as §1, §2

[15] = system: S. epidermidis C2235; format: cell-based; settings: Staphylococcus epidermidis, read-out: Minimum inhibition concentration (MIC)
Description: as §1, §2

[16] = system: S. pyogenes ATCC8668; format: cell-based; settings: Streptococcus pyogenes, read-out: Minimum inhibition concentration (MIC)
Description: as §1, §2

[17] = system: S. pyogenes C6003; format: cell-based; settings: Streptococcus pyogenes, read-out: Minimum inhibition concentration (MIC)
Description: as §1, §2

[18] = system: S. pyogenes C6012; format: cell-based; settings: Streptococcus pyogenes, read-out: Minimum inhibition concentration (MIC)
Description: as §1, §2

[19] = system: VRE C6487; format: cell-based, Enterococcus faecium; settings: Enterococcus, read-out: Minimum inhibition concentration (MIC)
Description: as §1, §2

[20] = system: VRE C6488; format: cell-based, Enterococcus faecium; settings: Enterococcus, read-out: Minimum inhibition concentration (MIC)
Description: as §1, §2

SMILES: CN[C@H](CC(C)C)C(=O)N[C@H]1C(=O)N[C@@H](CC(N)=O)C(=O)N[C@H]2C(=O)N[C@H]3C(=O)N[C@H](C(=O)N[C@H](C(=O)O)c4cc(O)cc(O)c4-c4cc3ccc4O)[C@H](O)c3ccc(c(Cl)c3)Oc3cc2cc(c3O[C@@H]2O[C@H](CO)[C@@H](O)[C@H](O)[C@H]2O[C@H]2C[C@](C)(N)[C@H](O)[C@H](C)O2)Oc2ccc(cc2Cl)[C@H]1O [VAN, vancomycin, reference compound]
- MIC ([1]; 18 h): 2 µg/mL (≈ 1.38 µM)
- MIC ([2]; 18 h): 2 µg/mL (≈ 1.38 µM)
- MIC ([3]; MRSA, 18 h): 1 µg/mL (≈ 0.69 µM)
- MIC ([4]; MRSA, 18 h): 2 µg/mL (≈ 1.38 µM)
- MIC ([5]; MRSA, 18 h): 1 µg/mL (≈ 0.69 µM)
- MIC ([6]; MSSA, 18 h): 1 µg/mL (≈ 0.69 µM)
- MIC ([7]; MSSA, 18 h): 2 µg/mL (≈ 1.38 µM)
- MIC ([8]; ATCC29212, 18 h): 4 µg/mL (≈ 2.76 µM)
- MIC ([9]; C6288, 18 h): 2 µg/mL (≈ 1.38 µM)
- MIC ([10]; C6291, 18 h): 2 µg/mL (≈ 1.38 µM)
- MIC ([11]; C2252, 18 h): 1 µg/mL (≈ 0.69 µM)
- MIC ([12]; C6301, 18 h): 1 µg/mL (≈ 0.69 µM)
- MIC ([13]; ATCC12228, 18 h): 1 µg/mL (≈ 0.69 µM)
- MIC ([14]; C2230, 18 h): 2 µg/mL (≈ 1.38 µM)
- MIC ([15]; C2235, 18 h): 2 µg/mL (≈ 1.38 µM)
- MIC ([16]; ATCC8668, 18 h): 0.12 µg/mL (≈ 0.0828 µM)
- MIC ([17]; C6003, 18 h): 4 µg/mL (≈ 2.76 µM)
- MIC ([18]; C6012, 18 h): 0.5 µg/mL (≈ 0.345 µM)
- MIC ([19]; VRE, 18 h): > 32 µg/mL
- MIC ([20]; VRE, 18 h): > 32 µg/mL

- MIC ([1]; CRSA C1062, Agar Dilution method, Mueller Hinton Agar, 18 hours at 37° C.): 4 µg/mL (≈ 11.9 µM)
- MIC ([2]; CRSA C6043, Agar Dilution method, Mueller Hinton Agar, 18 hours at 37° C.): 2 µg/mL (≈ 5.93 µM)
- MIC ([3]; MRSA C2207, Agar Dilution method, Mueller Hinton Agar, 18 hours at 37° C.): 4 µg/mL (≈ 11.9 µM)
- MIC ([4]; MRSA C5100, Agar Dilution method, Mueller Hinton Agar, 18 hours at 37° C.): 2 µg/mL (≈ 5.93 µM)
- MIC ([5]; MRSA C6068, Agar Dilution method, Mueller Hinton Agar, 18 hours at 37° C.): 2 µg/mL (≈ 5.93 µM)
- MIC ([6]; MSSA C2214, Agar Dilution method, Mueller Hinton Agar, 18 hours at 37° C.): 4 µg/mL (≈ 11.9 µM)
- MIC ([7]; MSSA C7142, Agar Dilution method, Mueller Hinton Agar, 18 hours at 37° C.): 4 µg/mL (≈ 11.9 µM)
- MIC ([8]; E. faecalis ATCC29212, Agar Dilution method, Mueller Hinton Agar, 18 hours at 37° C.): 4 µg/mL (≈ 11.9 µM)
- MIC ([9]; E. faecalis C6288, Agar Dilution method, Mueller Hinton Agar, 18 hours at 37° C.): 2 µg/mL (≈ 5.93 µM)
- MIC ([10]; E. faecalis C6291, Agar Dilution method, Mueller Hinton Agar, 18 hours at 37° C.): 2 µg/mL (≈ 5.93 µM)
- MIC ([11]; E. faecium C2252, Agar Dilution method, Mueller Hinton Agar, 18 hours at 37° C.): 2 µg/mL (≈ 5.93 µM)
- MIC ([12]; E. faecium C6301, Agar Dilution method, Mueller Hinton Agar, 18 hours at 37° C.): 2 µg/mL (≈ 5.93 µM)
- MIC ([13]; S. epidermidis ATCC12228, Agar Dilution method, Mueller Hinton Agar, 18 hours at 37° C.): 0.5 µg/mL (≈ 1.48 µM)
- MIC ([14]; S. epidermidis C2230, Agar Dilution method, Mueller Hinton Agar, 18 hours at 37° C.): 2 µg/mL (≈ 5.93 µM)
- MIC ([15]; S. epidermidis C2235, Agar Dilution method, Mueller Hinton Agar, 18 hours at 37° C.): 2 µg/mL (≈ 5.93 µM)
- MIC ([16]; S. pyogenes ATCC8668, Agar Dilution method, Mueller Hinton Agar, 18 hours at 37° C.): 0.5 µg/mL (≈ 1.48 µM)
- MIC ([17]; S. pyogenes C6003, Agar Dilution method, Mueller Hinton Agar, 18 hours at 37° C.): 2 µg/mL (≈ 5.93 µM)
- MIC ([18]; S. pyogenes C6012, Agar Dilution method, Mueller Hinton Agar, 18 hours at 37° C.): 0.5 µg/mL (≈ 1.48 µM)
- MIC ([19]; VRE C6487, Agar Dilution method, Mueller Hinton Agar, 18 hours at 37° C.): 2 µg/mL (≈ 5.93 µM)
- MIC ([20]; VRE C6488, Agar Dilution method, Mueller Hinton Agar, 18 hours at 37° C.): 2 µg/mL (≈ 5.93 µM)
SMILES: CC(=O)NC[C@H]1CN(c2ccc(N3CCOCC3)c(F)c2)C(=O)O1 [LZD, Linezolid, reference compound]

Reference: patent US20040087633A1, “Methylidene oxazolidinone compound and preparation method thereof” (Korea Institute of Science and Technology, priority 2002, published 2004)
